# Source: patent publication US10526316B2, “Quinoxaline and pyridopyrazine derivatives as PI3Kβ inhibitors” (Janssen Pharmaceutica NV, priority 2015, dated 2020)
# Where two headings read alike, the source gives them in different places.
# How the values were obtained:
# PI3Kβ = target: T1, PI3Kβ (Homo sapiens, UniProt P42338); test: Enzyme binding assay (KINOMEscan, DiscoveRx)
# T1 construct: purchased DiscoveRx Corporation, San Diego (contract service, KINOMEscan)
# Experimental: (§1) Enzyme Binding Assays (KINOMEscan®)
# Kinase enzyme binding affinities of compounds disclosed herein were determined using the KINOMEscan technology performed by DiscoveRx Corporation, San Diego, Calif., USA (www.kinomescan.com). Table A reports the obtained Kd values (nM), with the Kd being the inhibitor binding constant: […]
# [1] = test system: Akt phosphorylated at Thr308 in PC-3 cells; test: Cellular assay: phosphorylation of Akt at Thr308 in PC-3 cells (MSD ELISA); type: cell-based; details: PC-3 cells, 60 min compound incubation, MSD ELISA, read-out: IC50 pAkt_Thr308
# Experimental: (§2) Cellular activity of PI3KP inhibitors was determined by quantifying the phosphorylation of Akt in PC-3 cells. Akt phosphorylated at Ser473 and Thr308 were measured using an enzyme-linked immunosorbent assay (ELISA; Meso Scale Discovery (MSD), Gaithersburg. Md.) and specific primary antibodies from MSD.
# (§3) On day 2, compound or DMSO (0.3%) was added and cells were further incubated for 60 min at 37° C. 5% CO2 in a total volume of 100 μl of medium.
# (§4) The phosphoprotein assay was executed according to vendor instructions in the Phospho-Akt (Ser473) Assay Whole Cell Lysate Kit (MSD # K15100D-3) and the Phospho-Akt (Thr308) Assay Whole Cell Lysate Kit (MSD # K151DYD-3) using the lysis, blocking and wash buffer provided.
# (§5) Briefly, at the end of the cell treatment period, media were removed by aspiration and adherent cells were lysed in 50 μl ice-cold lysis buffer. MSD plates are supplied pre-coated with capture antibodies for Phospho-Akt (Ser473 and Thr308). After blocking, lysates from tissue culture plates were added and plates were washed. Then, a solution containing the detection antibody (anti-total Akt conjugated with an electrochemiluminescent compound-MSD Sulfo-tag label) was added. The signals were detected using an MSD SECTOR Imager 6000 and are proportional to the phospho-Akt titres.
# (§6) Data were processed. […] From these concentration-response curves, the IC50 values were calculated. Five concentrations were used for curve fitting.
# PI3Kδ = target: T2, PI3Kδ (Homo sapiens, UniProt O00329); test: Enzyme binding assay (KINOMEscan, DiscoveRx); details: PIK3Cδ_h
# T2 construct: purchased DiscoveRx Corporation, San Diego (contract service, KINOMEscan)
# T2 sequence (O00329 1-1044): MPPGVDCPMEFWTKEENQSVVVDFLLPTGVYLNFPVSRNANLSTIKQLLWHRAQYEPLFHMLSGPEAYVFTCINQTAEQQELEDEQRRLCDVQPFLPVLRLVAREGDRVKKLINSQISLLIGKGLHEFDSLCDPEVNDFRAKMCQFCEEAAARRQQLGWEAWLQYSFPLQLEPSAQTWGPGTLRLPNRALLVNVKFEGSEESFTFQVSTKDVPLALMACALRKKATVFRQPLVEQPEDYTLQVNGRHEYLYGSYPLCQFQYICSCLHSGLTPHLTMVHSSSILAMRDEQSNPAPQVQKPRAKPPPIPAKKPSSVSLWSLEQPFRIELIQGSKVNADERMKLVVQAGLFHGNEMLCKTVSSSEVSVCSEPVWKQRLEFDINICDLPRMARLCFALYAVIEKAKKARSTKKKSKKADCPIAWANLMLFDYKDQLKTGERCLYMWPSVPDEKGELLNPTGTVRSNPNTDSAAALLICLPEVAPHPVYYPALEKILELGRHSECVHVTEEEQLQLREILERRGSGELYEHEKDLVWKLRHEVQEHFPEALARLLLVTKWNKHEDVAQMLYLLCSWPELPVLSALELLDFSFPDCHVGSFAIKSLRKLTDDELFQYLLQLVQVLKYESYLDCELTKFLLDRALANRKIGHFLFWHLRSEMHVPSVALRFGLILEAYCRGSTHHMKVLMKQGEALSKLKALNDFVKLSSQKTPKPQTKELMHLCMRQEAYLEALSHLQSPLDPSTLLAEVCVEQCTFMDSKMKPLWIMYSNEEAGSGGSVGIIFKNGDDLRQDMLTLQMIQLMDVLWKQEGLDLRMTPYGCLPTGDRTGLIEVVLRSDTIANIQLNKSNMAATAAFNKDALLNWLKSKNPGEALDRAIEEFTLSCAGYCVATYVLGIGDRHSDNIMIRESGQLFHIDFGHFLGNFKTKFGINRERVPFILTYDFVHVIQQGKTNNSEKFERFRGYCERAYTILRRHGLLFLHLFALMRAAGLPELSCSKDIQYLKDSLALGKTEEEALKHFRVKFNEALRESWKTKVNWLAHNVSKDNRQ
# Experimental: as §1
# (§7) Kinase enzyme binding affinities of compounds disclosed herein were determined using the KINOMEscan technology performed by DiscoveRx Corporation, San Diego, Calif., USA (www.kinomescan.com).
# kinase enzymes [2] = target: T3, kinase enzymes (Homo sapiens, UniProt P42336); test: Enzyme binding assay (KINOMEscan, DiscoveRx), further kinases of Table A; details: PIK3Cα_h
# T3 construct: purchased DiscoveRx Corporation, San Diego (contract service, KINOMEscan)
# Experimental: as §1, §7
# kinase enzymes [3] = target: T4, kinase enzymes (Homo sapiens, UniProt P42345); test: as above; details: MTOR_h
# T4 construct: purchased DiscoveRx Corporation, San Diego (contract service, KINOMEscan)
# Experimental: as §1, §7
# kinase enzymes [4] = target: T5, kinase enzymes (Homo sapiens, UniProt P48736); test: as above; details: PIK3Cγ_h
# T5 construct: purchased DiscoveRx Corporation, San Diego (contract service, KINOMEscan)
# Experimental: as §1, §7
# [5] = test system: Akt phosphorylated at Ser473 in PC-3 cells; test: Cellular assay: phosphorylation of Akt at Ser473 in PC-3 cells (MSD ELISA); type: cell-based; details: PC-3 cells, 60 min compound incubation, MSD ELISA, read-out: IC50 pAkt_S473
# Experimental: as §2, §3, §4, §5, §6
# [6] = PIK3Cβ_h, read-out: Kd PIK3Cβ_h
# T3 sequence (P42336 whole entry): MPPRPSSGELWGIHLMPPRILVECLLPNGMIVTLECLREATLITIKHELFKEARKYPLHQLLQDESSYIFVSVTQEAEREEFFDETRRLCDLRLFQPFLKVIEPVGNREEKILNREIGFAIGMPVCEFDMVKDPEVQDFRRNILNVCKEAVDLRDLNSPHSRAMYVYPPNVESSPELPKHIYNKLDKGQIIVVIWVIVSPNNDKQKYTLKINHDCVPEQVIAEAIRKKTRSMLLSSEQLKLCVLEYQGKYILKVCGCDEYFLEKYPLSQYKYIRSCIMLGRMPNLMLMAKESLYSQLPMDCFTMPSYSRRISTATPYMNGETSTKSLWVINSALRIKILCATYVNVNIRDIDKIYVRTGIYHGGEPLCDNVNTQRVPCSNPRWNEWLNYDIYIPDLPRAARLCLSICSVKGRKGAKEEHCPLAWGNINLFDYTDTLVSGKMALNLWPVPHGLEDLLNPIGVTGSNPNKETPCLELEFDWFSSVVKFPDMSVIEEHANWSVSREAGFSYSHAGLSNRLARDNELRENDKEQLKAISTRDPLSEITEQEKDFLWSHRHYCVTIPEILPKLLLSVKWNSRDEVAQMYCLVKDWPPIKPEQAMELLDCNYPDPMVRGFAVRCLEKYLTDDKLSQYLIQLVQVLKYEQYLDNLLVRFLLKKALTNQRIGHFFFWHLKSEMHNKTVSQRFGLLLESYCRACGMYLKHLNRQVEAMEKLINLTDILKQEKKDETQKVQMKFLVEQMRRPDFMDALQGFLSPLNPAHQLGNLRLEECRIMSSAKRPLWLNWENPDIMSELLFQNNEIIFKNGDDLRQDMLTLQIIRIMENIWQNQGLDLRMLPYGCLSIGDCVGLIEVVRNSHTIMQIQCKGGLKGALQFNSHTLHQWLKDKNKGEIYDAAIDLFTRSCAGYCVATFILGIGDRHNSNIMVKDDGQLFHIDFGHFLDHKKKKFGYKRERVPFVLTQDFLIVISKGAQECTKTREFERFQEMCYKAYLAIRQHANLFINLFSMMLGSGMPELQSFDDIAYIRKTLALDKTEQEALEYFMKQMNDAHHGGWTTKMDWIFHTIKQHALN
# T1 sequence (P42338 whole entry): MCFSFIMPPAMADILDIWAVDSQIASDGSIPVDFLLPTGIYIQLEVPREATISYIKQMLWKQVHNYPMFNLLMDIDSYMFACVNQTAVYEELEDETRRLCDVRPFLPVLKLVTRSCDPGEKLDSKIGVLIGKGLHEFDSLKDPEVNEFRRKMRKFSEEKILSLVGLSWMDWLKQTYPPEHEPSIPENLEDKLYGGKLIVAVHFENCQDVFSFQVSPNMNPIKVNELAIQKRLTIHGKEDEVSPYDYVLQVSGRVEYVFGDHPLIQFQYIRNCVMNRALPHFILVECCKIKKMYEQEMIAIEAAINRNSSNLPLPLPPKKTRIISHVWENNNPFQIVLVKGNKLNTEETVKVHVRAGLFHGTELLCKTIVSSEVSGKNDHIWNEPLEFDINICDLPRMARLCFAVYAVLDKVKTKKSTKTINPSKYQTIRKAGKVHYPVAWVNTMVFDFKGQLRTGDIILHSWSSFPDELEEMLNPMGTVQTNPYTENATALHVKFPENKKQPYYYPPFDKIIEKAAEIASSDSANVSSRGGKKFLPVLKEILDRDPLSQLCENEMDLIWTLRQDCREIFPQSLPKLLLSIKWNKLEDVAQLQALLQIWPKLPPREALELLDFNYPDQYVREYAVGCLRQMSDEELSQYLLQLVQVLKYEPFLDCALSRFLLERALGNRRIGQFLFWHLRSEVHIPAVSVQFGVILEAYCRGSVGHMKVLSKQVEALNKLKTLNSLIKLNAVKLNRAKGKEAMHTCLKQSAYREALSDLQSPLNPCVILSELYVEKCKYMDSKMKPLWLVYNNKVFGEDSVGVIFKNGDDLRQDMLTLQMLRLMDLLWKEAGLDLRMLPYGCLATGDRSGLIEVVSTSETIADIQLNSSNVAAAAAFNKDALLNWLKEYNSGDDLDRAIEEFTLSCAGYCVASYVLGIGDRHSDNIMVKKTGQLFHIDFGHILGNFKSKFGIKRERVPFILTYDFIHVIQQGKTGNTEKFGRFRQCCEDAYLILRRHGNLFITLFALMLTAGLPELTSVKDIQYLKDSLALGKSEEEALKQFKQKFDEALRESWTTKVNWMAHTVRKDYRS
# T5 sequence (P48736 whole entry): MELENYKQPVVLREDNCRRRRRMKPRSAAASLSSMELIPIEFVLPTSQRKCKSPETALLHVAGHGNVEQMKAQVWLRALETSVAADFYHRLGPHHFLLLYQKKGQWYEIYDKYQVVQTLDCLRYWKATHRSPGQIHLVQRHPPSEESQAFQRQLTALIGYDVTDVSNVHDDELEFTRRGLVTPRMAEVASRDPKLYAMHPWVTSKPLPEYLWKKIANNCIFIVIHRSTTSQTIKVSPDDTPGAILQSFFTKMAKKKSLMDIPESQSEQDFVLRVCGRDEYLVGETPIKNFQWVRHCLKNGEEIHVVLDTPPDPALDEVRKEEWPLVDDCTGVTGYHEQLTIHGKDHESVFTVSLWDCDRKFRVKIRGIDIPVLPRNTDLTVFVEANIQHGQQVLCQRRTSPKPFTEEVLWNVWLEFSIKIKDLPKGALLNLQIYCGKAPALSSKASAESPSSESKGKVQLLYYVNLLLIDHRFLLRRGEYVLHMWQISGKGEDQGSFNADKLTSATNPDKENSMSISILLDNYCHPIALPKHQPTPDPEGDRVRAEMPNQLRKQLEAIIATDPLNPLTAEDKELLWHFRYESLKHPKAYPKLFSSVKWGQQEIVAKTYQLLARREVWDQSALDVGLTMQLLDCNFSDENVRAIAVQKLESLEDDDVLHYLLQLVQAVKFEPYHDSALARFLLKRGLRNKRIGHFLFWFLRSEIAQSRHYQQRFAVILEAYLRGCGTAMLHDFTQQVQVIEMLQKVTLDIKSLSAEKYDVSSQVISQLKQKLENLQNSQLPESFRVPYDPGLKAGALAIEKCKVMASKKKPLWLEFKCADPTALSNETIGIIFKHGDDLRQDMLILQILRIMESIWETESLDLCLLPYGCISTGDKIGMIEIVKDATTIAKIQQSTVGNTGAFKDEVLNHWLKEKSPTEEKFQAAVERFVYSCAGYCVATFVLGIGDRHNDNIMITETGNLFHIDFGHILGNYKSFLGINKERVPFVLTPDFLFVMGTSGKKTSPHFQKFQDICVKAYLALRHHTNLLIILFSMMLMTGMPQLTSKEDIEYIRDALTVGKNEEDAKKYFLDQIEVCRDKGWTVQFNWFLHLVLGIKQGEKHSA
Kd (PI3Kβ; [6]),Kd (PI3Kδ),Kd (kinase enzymes [2]),Kd (kinase enzymes [3]),Kd (kinase enzymes [4]),IC50 [5],"IC50 ([1]; Homo sapiens, PC-3, 1 h)","IC50 ([5]; Homo sapiens, PC-3, 1 h)",Structure (SMILES),IC50 [1],Kd (PI3Kβ; read-out: Kd PIK3Cβ_h),Kd (PI3Kβ; Kd PIK3Cβ_h)
1910 nM,,26300 nM,> 30200 nM,6460 nM,59 nM,,,"CC(Nc1ccc(F)c(F)c1)c1cc(C(=O)NCCO)cc2ncc(N3CCOCC3)nc12 (single isomer, unassigned) [Compound 279b]",> 513 nM,,
2 nM,1000 nM,8910 nM,> 30200 nM,16600 nM,191 nM,,,"CC(C)NCCNC(=O)c1cc(C(C)Oc2cccc(F)c2)c2nc(N3CCOCC3)cnc2c1 (single isomer, unassigned) [Compound 314b]",,,
2 nM,355 nM,6030 nM,> 30200 nM,16200 nM,,,,"CC(C)NCCNC(=O)c1cc(C(C)Oc2ccc(F)c(F)c2)c2nc(N3CCOCC3)cnc2c1 (single isomer, unassigned) [Compound 286b]",204 nM,,

# More lines, now with the values behind:
Structure (SMILES),Kd (PI3Kβ; [6]),Kd (PI3Kδ),Kd (kinase enzymes [2]),Kd (kinase enzymes [3]),Kd (kinase enzymes [4]),IC50 [5],"IC50 ([1]; Homo sapiens, PC-3, 1 h)","IC50 ([5]; Homo sapiens, PC-3, 1 h)",IC50 [1],Kd (PI3Kβ; read-out: Kd PIK3Cβ_h),Kd (PI3Kβ; Kd PIK3Cβ_h)
"CNCCOCCN(C)C(=O)c1cc(C(C)Nc2cc(F)cc(F)c2)c2nc(N3CCOCC3)cnc2c1 (single isomer, unassigned) [Compound 175]",0.4 nM,112 nM,1700 nM,> 30200 nM,2570 nM,9 nM,,,11 nM,,
O=C(NCCO)c1cc(N2CCC2c2ccc(F)cc2)c2nc(N3CCOCC3)cnc2c1 (stereo not drawn) [Compound 391],251 nM,3390 nM,5490 nM,24500 nM,12000 nM,,> 513 nM,> 513 nM,,,
CC(Oc1cccc(F)c1)c1cc(C(=O)N(C)C)cc2ncc(N3CCOCC3)nc12 (racemic) [Compound 339],427 nM,2460 nM,5890 nM,16200 nM,9330 nM,> 513 nM,,,> 513 nM,,
C[C@@H](Nc1cccc(F)c1)c1cc(C(=O)NCCO)cc2ncc(N3CCOCC3)nc12 [Compound 117],,,,,,,44 nM,49 nM,,,
"CC(Nc1cc(F)cc(F)c1)c1cc(C(=O)N(C)CCN(C)C)cc2ncc(N3CCOCC3)nc12 (single isomer, unassigned) [Compound 182]",0.3 nM,32 nM,126 nM,> 30200 nM,912 nM,1 nM,,,,,
C[C@@H](Nc1cc(F)cc(F)c1)c1cc(C(=O)NCCN(C)C)cc2ncc(N3CCOCC3)nc12 [Compound 184b],,,589 nM,20000 nM,1100 nM,3 nM,,,2 nM,0.1 nM,
CN[C@H]1CCN(C(=O)c2cc(C(C)Nc3cc(F)c(F)c(F)c3)c3nc(N4CCOCC4)cnc3c2)C1 (stereo partly drawn) [Compound 297],0.3 nM,110 nM,1860 nM,> 30200 nM,1950 nM,,20 nM,,,,
CN(C)C(=O)c1cc([C@@H]2CCCN2c2cc(F)cc(F)c2)c2nc(N3CCOCC3)cnc2c1 [Compound 2],1090 nM,16400 nM,12300 nM,,,,> 513 nM,> 513 nM,,,
C[C@@H](Nc1cc(F)cc(F)c1)c1cc(C(=O)NCCN(C)C)cc2ncc(N3CCOCC3)nc12 [Compound 184c],,,829 nM,24000 nM,1270 nM,4 nM,,,2 nM,0.1 nM,
C[C@@H](Nc1cc(F)cc(F)c1)c1cc(C(=O)NCCN(C)C)cc2ncc(N3CCOCC3)nc12 [Compound 184a],,,806 nM,21900 nM,1480 nM,3 nM,,,2 nM,,0.1 nM
COC(=O)c1cc(C(C)Nc2cc(F)cc(Cl)c2)c2nc(N3CCOCC3)cnc2c1 (stereo not drawn) [Compound 264],52 nM,,,> 30200 nM,,> 513 nM,,,,,
Cc1ccc(F)cc1CNc1cc(C(=O)NCCO)cc2ncc(N3CCOCC3)nc12 [Compound 343],22 nM,,2190 nM,> 10000 nM,,,178 nM,389 nM,,,
